Common to all, as to assay type: cell-based, human
For one assay, the system named is NCI-H441 cells. Briefly: 3D cell proliferation assay (CellTiter Glo-3D), NCI-H441. As to conditions: medium with 2% FBS, read-out: H441 AP IC50. From the text:
(§1) MIA PaCa-2 cells were purchased from ATCC, Cat. No. CRL-1420; AsPC-1 cells were purchased from ATCC, Cat. No. CRL-1682; NCI-H441 cells were purchased from ATCC, Cat. No. HTB-174: NCI-H1975 cells were purchased from ATCC. Cat. No. CRL-5908; DMEM medium was purchased from Gibco, Cat. No. 11995-065: RPMI-1040 medium was purchased from Gibco. Cat. No. H 18754093; FBS was purchased from Gibco, Cat. No. 10099-141C. penicillin, streptomycin double-antibiotic solution (PS) was purchased from Gibco, Cat. No. 15140-122; Horse serum was purchased from Gibco. Cat. No. 16050130: trypsin (containing EDTA) was purchased from Gibco, Cat. No. 25200-072; DMSO was purchased from VWRAMRESCO, Cat. No. 0231-500ML; 384-well cell culture plates were purchased from Corning, Cat. No. 3830; white-bottomed, opaque 384-well assay plates were purchased from Corning, Cat. No. 3570. CellTiter Glo-3D) kit was purchased from Promega. Cat. No. G9683; cell counter was purchased from CHEMOMETEC, model: NC-200: microplate reader was purchased from PerkinElmer, model: EnVision.
(§2) MIA PaCa-2, a human pancreatic cancer cell strain endogenously containing a KRAS^G12C mutation, was cultured in a complete medium containing DMEM+10% FBS+2.5% Horse serum+1% PS. AsPC-1, a human pancreatic cancer cell strain endogenously containing a […] mutation, was cultured in a complete medium containing RPMI-1640+10% FBS+1% PS. NCI-H441 cells, a human lung cancer cell strain endogenously containing a […] mutation, were cultured in a complete medium containing RPMI-1640+10% FBS+1% PS. NCI-H1975, a KRAS wild-type human lung cancer cell strain whose cell proliferation depends on KRAS activity, was cultured in a complete medium containing RPMI-1640+10% FBS+1% PS.
(§3) The cells were digested with trypsin (containing EDTA), collected in their respective low-serum complete media containing 2% FBS (for MIA Paca-2 cell culture: DMEM+2% FBS+0.5% Horse serum+1% PS), and counted. After the cell density was adjusted as required, 200 MIA PaCa-2 cells, 800 AsPC-1 cells, 800 NCI-H441 cells, or 400 NCI-H1975 cells per well were seeded into a 384-well cell culture plate, with the volume of the medium in each well being 45 μL. The cell culture plate was incubated in an incubator at 37° C. with 5% CO2, overnight. A series of 3.16-fold gradient dilutions of a 1000× compound stock solution were prepared with DMSO, and then diluted 100-fold with the complete medium containing 2% FBS described above to give 10- compound stock solutions. On the day after cell seeding, 5 μL of the 10- compound stock solution was added to each cell culture well. As a result, the final concentration of the compound in the cell culture well became 1×, and the DMSO content in the well was 0.1%. In addition to the compound-treated wells described above, cell-containing DMSO control wells (with 5 μL of the complete medium containing 1% DMSO added to each well) and cell-free medium control wells (containing 50 μL of the complete medium with 2% FBS) were also set. The culture plate was incubated in an incubator at 37° C. with 5% CO2 for another 5 days, and then 30 μL of CellTiter-Glo working solution was added to each well. The mixture was well mixed, incubated for 30 min, left to stand at room temperature for 30 min, and then transferred to a white-bottomed, opaque 384-well assay plate at 40 μL/well. The chemiluminescence values (RLU) were measured using a microplate reader, and the cell proliferation inhibition rate for each well was calculated: IR (%)=(RLUDMSO—RLUcompound)/(RLUDMSO−RLUblank)×100%, where RLUDMSO is the average RLU signal value from the DMSO control well samples, RLUblank is the average RLU signal value from the medium control well samples, and RLUcompound is the RLU signal value from the compound-treated well samples. […]

The subject of assay [1] is p-ERK in AsPC-1 cells (KRAS G12D mutation). In words: Cell p-ERK assay (HTRF) in AsPC-1 cells. As to conditions: AsPC-1 cells, 3 h compound incubation, HTRF p-ERK T202/Y204, read-out: AsPC-1 p-ERK IC50. As for the experimental part: AsPC-1 cells were purchased from ATCC, Cat. No. CRL-1682: NCI-H441 cells were purchased from ATCC, Cat. No. HTB-174: RPMI-1640 medium was purchased from Gibco, Cat. No. I1875-093: FBS was purchased from Gibco, Cat. No. 10099-141C: penicillin/streptomycin double-antibiotic solution (PS) was purchased from Gibco, Cat. No. 15140-122: trypsin (containing EDTA) was purchased from Gibco, Cat. No. 25200-072; DMSO was purchased from VWRAMRESCO, Cat. No. 0231-500ML; 96-well cell culture plates were purchased from Corning, Cat. No. 3599: white-bottomed, opaque 96-well plates were purchased from Cisbio, Cat. No. 66PL96025; Advance ERK phospho-T202/Y204 kit was purchased from Cisbio, Cat. No. 64AERPEH; cell counter was purchased from CHEMOMETEC, model: NC-200; microplate reader was purchased from PerkinElmer, model: EnVision.
AsPC-1, a human pancreatic cancer cell strain endogenously containing a KRAS^G12D mutation, was cultured in a complete medium containing RPMI-1640+10% FBS+1% PS. NCI-H441, a human non-small cell lung cancer cell strain endogenously containing a KRAS^G12V mutation, was cultured in a complete medium containing RPMI-1640+10% FBS+1% PS.
The cells were digested with trypsin (containing EDTA), collected in their corresponding complete media, and counted. The density of the cell suspensions was adjusted with their corresponding complete media, and 10000 AsPC-1 cells or 20000 NCI-H441 cells per well were seeded into a 96-well cell culture plate, with the volume of the medium in each well being 80 μL.
The cell culture plate was incubated in an incubator at 37° C. with 5% CO2 overnight. A series of 3.16-fold gradient dilutions of a 1000- compound stock solution were prepared with DMSO, and then diluted 200-fold with the complete medium described above to give 5′ compound stock solutions. On the day after cell seeding, 20 μL of the 5× compound stock solution was added to each cell culture well. As a result, the final concentration of the compound in the cell culture well became 1×, and the DMSO content in the well was 0.1%. In addition to the compound-treated wells described above, cell-containing DMSO control wells were also set. A complete medium containing 0.5% DMSO was added at 20 μL/well. After the mixture was well mixed, the culture plate was incubated in the incubator at 37° C. with 5% CO2 for another 3 h. The medium was then removed from the culture wells, and 50 μL of cell lysis buffer (from Advance ERK phospho-T202,Y204 kit) was added to each well. The mixture was well mixed and incubated for 30 min. Then, 16 μL of the mixture was transferred to a white-bottomed, opaque 96-well assay plate, and separately, 16 μL of cell lysis buffer was added to additional wells (serving as blank wells) in the assay plate. After the transfer was completed, 4 μL of p-ERK HTRF antibody mixture (from Advance ERK phospho-T202/Y204 kit) was added to each well of the assay plate, followed by a 4-hour incubation. The HTRF signal values (RLU) were then measured using a microplate reader, and the inhibition rate of the compound against p-ERK levels was calculated as follows: IR (%)=(RLUDMSO−RLUcompound)/(RLUDMSO−RLUblank)×100%, where RLUDMSO is the average HTRF signal value from the DMSO control well samples, RLUblank is the average HTRF signal value from the blank well samples, and RLUcompound is the HTRF signal value from the compound-treated well samples. Using an XLfit software, the IR (%) values were plotted against the logarithm of the compound concentrations, and the dose-response curves were fitted using the four-parameter method to calculate the IC50 values.

Assay [2] deals with p-ERK in NCI-H441 cells (KRAS G12V mutation). Briefly: Cell p-ERK assay (HTRF) in NCI-H441 cells. Particulars: NCI-H441 cells, 3 h compound incubation, HTRF p-ERK T202/Y204, read-out: H441 p-ERK IC50. Summed up:
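Cells are plated (AsPC-1 at 10000, NCI-H441 at 20000 per well) and cultured overnight. Next day compound is added in a 3.16-fold dilution series with 0.1% DMSO and left 3 h. After lysis, p-ERK antibodies incubate 4 h before HTRF reading and four-parameter IC50 fitting.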

The test system of assay [3] is AsPC-1 cells (KRAS G12D mutation). In words: 3D cell proliferation assay (CellTiter Glo-3D), AsPC-1. Particulars: Homo sapiens, ASPC1, 3D cell proliferation (CellTiter Glo-3D), medium with 2% FBS, read-out: AsPC-1 AP IC50.
Source text: as §1, §2, §3

Setting [4] is: Homo sapiens, NCI-H441, 3D cell proliferation (CellTiter Glo-3D).

Drawing on patent US20260234165A1, “MACROCYCLIC COMPOUNDS, PREPARATION METHOD THEREFOR, AND USE THEREOF” (GENFLEET THERAPEUTICS (SHANGHAI) INC., priority 2004, published 2026), this text covers IC50 for five molecules.

Where a name gives a salt, the structure may show the parent alone. Read-outs that look alike come from different tables or passages of the source.

With `CCn1c(-c2cc(N3CCN(C)CC3)cnc2[C@H](C)OC)c2c3cc(ccc31)-c1csc(n1)C[C@H](Nc1cccnn1)C(=O)N1CCC[C@H](N1)C(=O)OCC(C)(C)C2` (atropisomer, axis not shown; (Ra)) [Compound Z457, (6^3S,4S,Z)-1^1-ethyl-(Ra)-1^2-(2-((S)-1-methoxyethyl)-5-(4-methylpiperazin-1-yl)pyridin-3-yl)-10,10-dimethyl-4-(pyridazin-3-ylamino)-6^1,6^2,6^3,6^4,6^5,6^6-hexahydro-1^1H-8-oxa-2(4,2)-thiazola-1(5,3)-indola-6(1,3)-pyridazinacycloundecaphane-5,7-dione], the IC50 in the assay on NCI-H441 cells (setting [4]) turned out to be 27.6 nM; in assay [1] (Homo sapiens, ASPC1, 3 h), 92 nM; in assay [2] (Homo sapiens, NCI-H441, 3 h), 26.1 nM.
`CCn1c(-c2cc(N3CCN4CC5(CC5)OC[C@@H]4C3)cnc2[C@H](C)OC)c2c3cc(ccc31)-c1csc(n1)C[C@H](NC(=O)[C@H]1[C@H](C)[C@@H]1C)C(=O)N1CCC[C@H](N1)C(=O)OCC1(CCC1)C2` [Compound Z467, (1r,2R,3S)—N-((3′S,4′S,Z)-1′-ethyl-2′-(2-((S)-1-methoxyethyl)-5-((S)-tetrabydro-4H-spiro[cyclopropane-1,3′-pyrazino[2,1-c][1,4]oxazin]-8′(1′H)-yl)pyridin-3-yl)-5′,7′-dioxospiro[cyclobutane-1,10′-8-oxa-2(4,2)-thiazola-1(5,3)-indola-6(1,3)-pyridazinacycloundecaphan]-4′-yl)-2,3-dimethylcyclopropane-1-carboxamide]: the IC50 with NCI-H441 cells (setting [4]) was determined as 58.4 nM; in assay [1] (Homo sapiens, ASPC1, 3 h) it was 69 nM; in assay [2] (Homo sapiens, NCI-H441, 3 h), 28.2 nM.
For “(2R)—N-(5-((6^3S,4S,Z)-4-((1r, 2R,3S)-2,3-dimethylcyclopropane-1-carboxamido)-1^1-ethyl-10,10-dimethyl-5,7-dioxo-6^1,6^2,6^3,6^4,6^5,6^6-hexahydro-1^1H-8-oxa-2(4,2)-thiazola-1(5,3)-indola-6(1,3)-pyridazinacycloundecaphane-2-yl)-6-((S)-1-methoxyethyl)pyridin-3-yl)-N,1-dimethylazepane-2-carboxamide [Compound Z355]”, the IC50 in the assay with NCI-H441 cells (3D cell proliferation (CellTiter Glo-3D)) was 54.7 nM; in assay [1], 109 nM; in assay [2], 45.7 nM.
On to `CO[C@@H](C)c1ncc(C#CCN2CCS(=O)(=O)CC2)cc1-c1c2c3cc(ccc3n1C(C)C)-c1csc(n1)C[C@H](Nc1nnc3cc(C)ccn13)C(=O)N1CCC[C@H](N1)C(=O)OCC(C)(C)C2` (atropisomer, axis not shown; (Ra)) [Compound Z913-1, (6^3S,4S,Z)—(Ra)-1^1-(5-(3-(1,1-dioxidothiomorpholino)prop-1-yn-1-yl)-2-((S)-1-methoxyethyl)pyridin-3-yl)-1′-isopropyl-10,10-dimethyl-4-((7-methyl-[1,2,4]triazolo[4,3-a]pyridin-3-yl)amino)-6^1,6^2,6^3,6^4,6^5,6^6-hexahydro-1^1H-8-oxa-2(4,2)-thiazola-1(5,3)-indola-6(1.3)-pyridazinacycloundecaphane-5,7-dione], for which the IC50 in the assay with NCI-H441 cells (setting [4]) turned out to be 4.18 nM; in assay [3] it was 8.88 nM.
Turning to `CCn1c(-c2cc(N3CCN(C)CC3)cnc2[C@H](C)OC)c2c3cc(ccc31)-c1csc(n1)C[C@H](NC1CCN(C)C1=O)C(=O)N1CCC[C@H](N1)C(=O)OCC(C)(C)C2` (atropisomer, axis not shown; (Ra)) [Compound Z70, (6^3S,4S,Z)-1^1-ethyl-(Ra)-1^2-(2-((S)-1-methoxyethyl)-5-(4-methylpiperazin-1-yl)pyridin-3-yl)-10,10-dimethyl-4-((1-methyl-2-oxopyrrolidin-3-yl)amino)-6^1,6^2,6^3,6^4,6^5,6^6-hexahydro-1^1H-8-oxa-2(4,2)-thiazola-1(5,3)-indola-6(1,3)-pyridazinacycloundecaphane-5,7-dione formate], the IC50 in the assay on NCI-H441 cells (setting [4]) is 344 nM; in assay [3], 416 nM.
